{"source": "patent US7271187B2", "about": "“Compositions and methods for promoting tissue regeneration” (priority 2000, dated 2007)", "tested_on": "mixed embryonic day 18 (E18) rat neural cultures", "experiment": "Embryonic day 18 rat cortical culture, glutamate-killed neurons, immunostaining for neuronal markers", "format": "cell-based", "from_the_text": "The method of the invention is exemplified by a first embodiment wherein administration of a single in vitro dose of N-[4-[(4-fluorophenyl)sulfonyl]phenyl]-acetamide, a compound according to Formula (II), to a population of mixed embryonic day 18 (“E18”) rat neural cultures without living neurons results in a protein expression pattern within the culture that is indicative of development of neuronal cells from progenitor cells. The embryonic neural cultures are first subjected to glutamate excitotoxic exposure sufficient to result in neuronal cell death prior to administration of the compound. Cultures obtained from E18 rat embryos are allowed to mature in vitro for 10 days at which time they are treated with […] glutamate to kill the neurons. Eight days later, cultures are treated with a range of doses of the compound N-[4-[(4-fluorophenyl)sulfonyl]phenyl]acetamide from 0.01 μg/ml to 100 μg/ml. In comparing control cultures and drug treated cultures, an antigenic marker for neuronal progenitor cells, e-NCAM (as detected by immunohistochemical methods), is elevated one week after treatment of the culture with N-[4-[(4-fluorophenyl)sulfonyl]phenyl]-acetamide. […] In contrast, few cells in untreated cultures are observed expressing MAP-II immunoreactivity at 3 weeks post-treatment. […] In control cultures, few cells are observed expressing intense MAP-II and beta-tubulin immunoreactivity. […] This expression pattern represents the normal sequence of events as neuronal cells develop from progenitor cells.\nCNS tissue was harvested from embryonic day 18 (E-18) rat pups (Taconic Labs) using sterile technique and was stored in ice cold Hank's Balanced Salt Solution (HBSS-Gibco). Brains were removed from the cranium of 10 embryos, and the meninges removed to expose the underlying cortex. Cortex was isolated from the rest of the brain and stored in ice cold HBSS. After all material was collected, the tissue was minced and trypsinized using 0.1% trypsin (Sigma) for 30 minutes at 37° C. Trypsin action was inhibited by adding 0.5 mg/ml soybean trypsin inhibitor (Gibco). Tissue was rinsed with HBSS and triturated using a flame narrowed Pasteur pipette coated with fetal bovine serum (FBS—Media Tech).\nDissociated cells were counted and plated into 24 well cluster plates in DMEM (MediaTech) plus 10% FBS (Media Tech) at a density of 5×10^5 cells per well. Twenty-four well cluster plates were coated with poly-D-lysine prior to adding cells. Cultures were maintained for 10 days in vitro using a 3-4 day feeding schedule where half the media was removed and replaced with fresh media.\nOn in vitro day (IVD) 10, glutamate (Gibco) (110 μl of 20 mM added to wells that contained 1 ml of media) was add to all wells except control wells to a final concentration 2 mM. Control wells were fed an equal amount of media minus the L-glutamate. Cultures were maintained for an additional 9 days using a 3-4 feeding schedule. On IVD-18, media was removed and replaced with Neurobasal (Gibco)+B27 supplements (Gibco) and L-glutamine (Media Tech). The next day, IVD-19, N-[4-[(4-fluorophenyl)sulfonyl]phenyl]acetamide dissolved in 2-hydroxypropyl-β-cyclodextrin (Sigma) was added to cultures such that the final concentrations of the compound were either 100 μg/ml, 10 μg/ml, 1 μg/ml and 0.1 μg/ml or 10 μg/ml, 1 μg/ml 0.1 μg/ml and 0.01 μg/ml. Two sets of control wells were included in each experiment. One set of glutamate treated wells received an equal dose of 2-hydroxypropyl-β-cyclodextrin but without N-[4-[(4-fluorophenyl)sulfonyl]phenyl]acetamide. […] After it became apparent that the optimal dose was approximately 0.1 μg/ml to 1 μg/ml N-[4-[(4-fluorophenyl)sulfonyl]phenyl]acetamide, the concentration of drug added to the control wells was reduced to 1 μg/ml.\nCultures were maintained for up to an additional 10 weeks. […]", "key": {"[1]": {"details": "4 weeks post treatment, vs control cultures"}}, "data": [{"smiles": "CC(=O)Nc1ccc(S(=O)(=O)c2ccc(F)cc2)cc1", "note": "[N-[4-[(4-fluorophenyl)sulfonyl]phenyl]acetamide]", "values": [{"measurement": "MAP-II expression", "setting": "3 weeks post treatment, vs untreated cultures", "result": "Low levels of MAP-II expression are also detected at 3 weeks post treatment in a large number of cells"}, {"measurement": "MAP-II immunoreactivity", "setting": "[1]", "result": "a large number of cells treated with the compound can be observed expressing intense MAP-II and beta-tubulin immunoreactivity"}, {"measurement": "beta-tubulin immunoreactivity", "setting": "[1]", "result": "a large number of cells treated with the compound can be observed expressing intense MAP-II and beta-tubulin immunoreactivity"}, {"measurement": "phosphorylated neurofilament protein (NF-PO4) immunoreactivity", "setting": "6 weeks post treatment, vs untreated cultures", "result": "can be observed in numerous neurites"}, {"measurement": "e-NCAM expression (immunohistochemical)", "setting": "one week after treatment, drug treated vs control cultures, 0.01 μg/ml to 100 μg/ml", "result": "elevated"}, {"measurement": "expression of Low affinity Neuron Growth Factor Receptor", "setting": "ten weeks post treatment", "result": "show expression of the Low affinity Neuron Growth Factor Receptor"}, {"measurement": "beta-tubulin expression", "setting": "three weeks post treatment, vs untreated control cultures", "result": "elevated levels of beta-tubulin expression are detected in large numbers of cells"}]}]}
